Key:
[1] = test system: HCT 116 Cells; assay: Aurora kinase whole cell cytotoxicity assay: Sulforhodamine B; assay type: cell-based; conditions: Homo sapiens, HCT116, SRB staining, 96 hours incubation
Experimental: Human tumour-derived cell lines, HCT116 or MCF7 (ATCC) were plated in a 96 well plate in DMEM containing 10% fetal bovine serum and 2 mM L-glutamine at a density of 500 HCT116 cells or 1,000 MCF7 cells per well and incubated at 37° C., 5% CO2, for 24 hours prior to the addition of experimental compounds. Compounds were added using the dilution series indicated to duplicate plates and the cells were incubated in media plus compound for 96 hours. An additional plate was fixed in 10% TCA at the time of the addition of compound to provide a measurement of the cell population at time zero, the time of drug addition. Following the 96 hour incubation, cells were fixed in situ by gently aspirating off the culture media and then adding 50 ul of ice cold 10% TCA per well and incubation at 4° C. for 60 minutes. The plates were washed with tap water five times and allowed to air dry for 5 minute. 50 ul of a 0.4% (w/v) Sulforhodamine B solution in 1% (v/v) acetic acid was added per well and the cells were incubated for 30 minutes at room temperature. Following staining, plates were washed four times with 1% acetic acid to remove any unbound dye and then allowed to air dry for 5 minutes. The stain was solubilized with 100 ul of 10 mM Tris pH 10.5 per well and placed on an orbital rotator for 5 minutes. The absorbance was read at 570 nm. Percentage growth was calculated using the absorbance readings from the time zero plate (Tz) and the dilution series plate […] which included a column of cells grown in media without compound as a control (C) using the formulas: [(Ti−Tz)/(C−Tz)]×100 for concentrations for which Ti>/=Tz [(Ti−Tz)/Tz]×100 for concentrations for which Ti<Tz.
Three dose response parameters were calculated for each experimental agent. Growth inhibition of 50% (GI50) was calculated from [(Ti−Tz)/(C−Tz)]×100=50, which was the drug concentration resulting in a 50% reduction in the net protein increase (as measured by SRB staining) in control cells during the drug incubation. The drug concentration resulting in total growth inhibition (TGI) was calculated from Ti=Tz. The LC50 (concentration of drug resulting in a 50% reduction in the measured protein at the end of the drug treatment as compared to that at the beginning) indicating a net loss of cells following treatment ws calculated from [(Ti−Tz)/Tz]×100=−50. Values are calculated for each of these three parameters if the level of activity was reached; however, if the effect was not reached or was exceeded, the value for that parameter is expressed as greater or less than the maximum or minimum concentration tested.

[2] = molecular target: T1, recombinant Aurora A (Homo sapiens, UniProt O14965); assay: PanVera Z'-Lyte Aurora kinase assay; assay type: biochemical; conditions: Z'-Lyte Ser/Thr 1 peptide 2 μM, ATP 10 μM, 1 h
T1 construct: purchased Upstate, Lake Placid, N.Y
T1 sequence (O14965 1-403): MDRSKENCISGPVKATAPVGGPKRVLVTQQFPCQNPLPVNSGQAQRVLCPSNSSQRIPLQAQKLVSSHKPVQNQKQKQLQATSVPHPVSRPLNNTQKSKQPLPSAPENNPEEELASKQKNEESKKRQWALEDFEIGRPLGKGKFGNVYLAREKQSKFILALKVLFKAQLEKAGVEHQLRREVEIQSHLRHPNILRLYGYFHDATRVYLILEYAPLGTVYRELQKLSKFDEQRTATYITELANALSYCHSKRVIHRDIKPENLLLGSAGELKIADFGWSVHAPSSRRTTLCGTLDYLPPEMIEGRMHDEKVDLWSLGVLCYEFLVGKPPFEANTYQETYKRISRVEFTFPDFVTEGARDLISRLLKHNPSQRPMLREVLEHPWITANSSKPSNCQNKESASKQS
Experimental: Compounds 7-14 above were tested for their potency against recombinant Aurora A (Upstate, Lake Placid, N.Y.) using the PanVera Z'-Lyte kinase assay kit—Ser/Thr 1 peptide (Invitrogen, Carlsbad, Calif.). Assays were carried out in kinase assay buffer (50 mM HEPES, pH 7.5, 10 mM MgCl2, 5 mM EGTA, 0.05% Brij-35, 2 mM DTT). Test compounds were initially dissolved in DMSO at 100× the highest tested concentration, then serially diluted to 4× test concentrations in kinase assay buffer. Next, Aurora A (final concentration 200-500 ng/mL), Z′-Lyte Ser/Thr 1 peptide (final concentration 2 μM) and ATP (final concentration 10 μM) were added according to the manufacturer's instructions. Assays were carried out in half-area 96-well white polystyrene assay plates (Corning, Corning, N.Y.) in a final volume of 20 μL. The reaction was allowed to proceed for 1 h at room temperature in the dark, at which point the development reagent and stop reagent were added according to the manufacturer's instructions. Coumarin (Ex. 400 nm, Em. 465 nm) and fluorescein (Ex. 400 nm, Em. 565 nm) fluorescence values were measured on a SpectraFluor Plus plate reader (Tecan, Durham, N.C.). The emission ratio (coumarin/fluorescein) was determined and used to calculate the percent phosphorylation for each well. Wells containing substrate but no kinase and wells containing a phosphopeptide control were used to set 0% and 100% phosphorylation values, respectively. Typically 20-40% of the substrate was phosphorylated in wells without inhibitor. Dose-response curves of relative Aurora A activity vs. inhibitor concentration were plotted with Grafit (Erithacus Software, Horley, Surrey, UK) and used to calculate IC50 values.

IC50 [2]	SMILES	GI50 [1]
< 100 nM	COC(=O)c1nc(Sc2ccc(NC(=O)C3CC3)cc2)nc(Nc2cc(C)[nH]n2)c1N [Compound 7, Methyl 2-(4-cyclopropanecarboxamidophenylsulfanyl)-5-amino-6-(5-methylpyrazol-3-ylamino)-4-pyrimidinecarboxylate]	100 to 1000 nM
< 100 nM	Cc1cc(Nc2nc(Sc3ccc(NC(=O)C4CC4)cc3)nc(C(=O)O)c2N)n[nH]1 [Compound 8, 2-(4-Cyclopropanecarboxamidophenylsulfanyl)-5-amino-6-(5-methylpyrazol-3-ylamino)-4-pyrimidinecarboxylic acid]	
< 100 nM	CNC(=O)c1nc(Sc2ccc(NC(=O)C3CC3)cc2)nc(Nc2cc(C)[nH]n2)c1N [Compound 9, Methyl 2-(4-cyclopropanecarboxamidophenylsulfanyl)-5-amino-6-(5-methylpyrazol-3-ylamino)-4-pyrimidinecarboxamide]	
< 100 nM	Cc1cc(Nc2nc(Sc3ccc(NC(=O)C4CC4)cc3)nc(C(=O)NCCN(C)C)c2N)n[nH]1 [Compound 12, N-[2-(N,N-dimethylamino)ethyl]-2-(4-cyclopropane-carboxamidophenylsulfanyl)-5-amino-6-(5-methylpyrazol-3-ylamino)-4-pyrimidine carboxamide]	1000 to 10000 nM
< 100 nM	CCOC(=O)c1nc(S(=O)(=O)c2ccc(NC(=O)C3CC3)cc2)nc(Nc2cc(C)[nH]n2)c1N [Compound 13, Ethyl 2-(4-cyclopropanecarboxamidophenylsulfonyl)-5-amino-6-(5-methylpyrazol-3-ylamino)-4-pyrimidinecarboxylate]	
< 100 nM	CCOC(=O)c1nc([S+]([O-])c2ccc(NC(=O)C3CC3)cc2)nc(Nc2cc(C)[nH]n2)c1N (stereo not shown) [Compound 14, ethyl 2-(4-cyclopropane-carboxamidophenylsulfinyl)-5-amino-6-(5-methylpyrazol-3-ylamino)-4-pyrimidinecarboxylate]	
< 100 nM	Cc1cc(Nc2nc(Sc3ccc(NC(=O)C4CC4)cc3)nc(C(=O)NCCN3CCCCC3)c2N)n[nH]1 [Compound 17, N-(2-Piperidin-1-ylethyl) 2-(4-cyclopropanecarboxamidophenylsulfanyl)-5-amino-6-(5-methylpyrazol-3-ylamino)-4-pyrimidinecarboxamide]	100 to 1000 nM
< 100 nM	Cc1cc(Nc2nc(Sc3ccc(NC(=O)C4CC4)cc3)nc(C(=O)OCCN3CCOCC3)c2N)n[nH]1 [Compound 18, 2-Morpholin-4-ylethyl 2-(4-cyclopropanecarboxamidophenylsulfanyl)-5-amino-6-(5-methylpyrazol-3-ylamino)-4-pyrimidinecarboxylate]	1000 to 10000 nM
< 100 nM	Cc1cc(Nc2nc(Sc3ccc(NC(=O)C4CC4)cc3)nc(C(=O)OC3CCOCC3)c2N)n[nH]1 [Compound 19, Tetrahydro-2H-pyran-4-yl 2-(4-cyclopropanecarboxamidophenylsulfanyl)-5-amino-6-(5-methylpyrazol-3-ylamino)-4-pyrimidinecarboxylate]	100 to 1000 nM
100 to 1000 nM	CCOC(=O)c1nc(Nc2ccc(NC(C)=O)nc2)nc(Nc2cc(C)[nH]n2)c1N [Compound 34, Ethyl 2-(6-acetylamido-3-pyridylamino)-5-amino-6-(5-methylpyrazol-3-ylamino)-4-pyrimidinecarboxylate]	
< 100 nM	CCOC(=O)c1nc(Nc2ccc(NC(=O)C3CC3)cc2)nc(Nc2cc(C)[nH]n2)c1N [Compound 36, Ethyl 2-({4-[(cyclopropylcarbonyl)amino]phenyl}amino)-5-amino-6-(5-methylpyrazol-3-ylamino)-4-pyrimidinecarboxylate]	1000 to 10000 nM
< 100 nM	COCCOC(=O)c1nc(Sc2ccc(NC(=O)C3CC3)cc2)nc(Nc2cc(C)[nH]n2)c1N [Compound 40, 2-Methoxyethyl 2-(4-cyclopropanecarboxamidophenylsulfanyl)-5-amino-6-(5-methylpyrazol-3-ylamino)-4-pyrimidinecarboxylate]	100 to 1000 nM
< 100 nM	CSCCOC(=O)c1nc(Sc2ccc(NC(=O)C3CC3)cc2)nc(Nc2cc(C)[nH]n2)c1N [Compound 41]	100 to 1000 nM
< 100 nM	Cc1cc(Nc2nc(Sc3ccc(NC(=O)C4CC4)cc3)nc(C(=O)OC3CCCCC3)c2N)n[nH]1 [Compound 42, Cyclohexyl 2-(4-cyclopropanecarboxamidophenylsulfanyl)-5-amino-6-(5-methylpyrazol-3-ylamino)-4-pyrimidinecarboxylate]	100 to 1000 nM
< 100 nM	COCCNC(=O)c1nc(Sc2ccc(NC(=O)C3CC3)cc2)nc(Nc2cc(C)[nH]n2)c1N [Compound 43, N-(2-Methoxyethyl) 2-(4-cyclopropanecarboxamidophenylsulfanyl)-5-amino-6-(5-methylpyrazol-3-ylamino)-4-pyrimidinecarboxamide]	100 to 1000 nM
< 100 nM	Cc1cc(Nc2nc(Sc3ccc(NC(=O)C4CC4)cc3)nc(C(=O)N3CCOCC3)c2N)n[nH]1 [Compound 44, Morpholin-4-yl 2-(4-cyclopropanecarboxamidophenylsulfanyl)-5-amino-6-(5-methylpyrazol-3-ylamino)-4-pyrimidinecarboxamide]	1000 to 10000 nM
< 100 nM	Cc1cc(Nc2nc(Sc3ccc(NC(=O)C4CC4)cc3)nc(C(=O)N3CCSCC3)c2N)n[nH]1 [Compound 45, Thiomorpholin-4-yl 2-(4-cyclopropanecarboxamidophenylsulfanyl)-5-amino-6-(5-methylpyrazol-3-ylamino)-4-pyrimidinecarboxamide]	1000 to 10000 nM
< 100 nM	Cc1cc(Nc2nc(Sc3ccc(NC(=O)C4CC4)cc3)nc(C(=O)OCCN(C)C)c2N)n[nH]1 [Compound 46, 2-Dimethylaminoethyl 2-(4-cyclopropanecarboxamidophenylsulfanyl)-5-amino-6-(5-methylpyrazol-3-ylamino)-4-pyrimidinecarboxylate]	100 to 1000 nM
< 100 nM	Cc1cc(Nc2nc(Sc3ccc(NC(=O)C4CC4)cc3)nc(C(=O)OC3CCN(C)CC3)c2N)n[nH]1 [Compound 47, 1-Methylpiperidin-4-yl 2-(4-cyclopropanecarboxamidophenylsulfanyl)-5-amino-6-(5-methylpyrazol-3-ylamino)-4-pyrimidinecarboxylate]	100 to 1000 nM
100 to 1000 nM	Cc1cc(Nc2nc(Sc3ccc(NC(=O)C4CC4)cc3)nc(C(=O)Nc3ccccc3)c2N)n[nH]1 [Compound 60, N-Phenyl 2-(4-cyclopropanecarboxamidophenylsulfanyl)-5-amino-6-(5-methylpyrazol-3-ylamino)-4-pyrimidinecarboxamide]	

Source: patent publication US8153630B2, “Kinase inhibitors” (Miikana Therapeutics, Inc., priority 2004, dated 2012)
